Data set [1] in a line: Lipophilicity, logD of compound by HPLC analysis. The data set is classed as physicochemical.
In data set [2] the target is T1, Cytochrome P450 11B2, mitochondrial (Homo sapiens, UniProt P19099).
T1 sequence (P19099 whole entry): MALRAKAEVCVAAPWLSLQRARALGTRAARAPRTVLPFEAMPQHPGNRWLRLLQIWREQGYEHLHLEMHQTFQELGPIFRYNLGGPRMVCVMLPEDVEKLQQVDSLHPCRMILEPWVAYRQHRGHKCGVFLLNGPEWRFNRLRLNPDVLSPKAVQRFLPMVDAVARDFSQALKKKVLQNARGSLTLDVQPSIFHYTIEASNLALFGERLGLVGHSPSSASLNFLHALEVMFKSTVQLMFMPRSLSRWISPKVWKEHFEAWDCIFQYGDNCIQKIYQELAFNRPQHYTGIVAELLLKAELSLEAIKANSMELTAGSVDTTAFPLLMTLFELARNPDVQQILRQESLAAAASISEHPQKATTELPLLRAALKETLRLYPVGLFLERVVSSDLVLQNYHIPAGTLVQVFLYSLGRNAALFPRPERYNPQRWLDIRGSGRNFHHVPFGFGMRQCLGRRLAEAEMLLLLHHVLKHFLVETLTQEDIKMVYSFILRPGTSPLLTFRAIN
The data set can be described thus: Inhibition of human CYP11B2-CLE9 expressed in chinese hamster V79 cells using 11-deoxycorticosterone as substrate preincubated for 1 hr followed by substrate addition measured for 3 hrs by HTRF assay. Type of data set: cell-based.

The target of data set [3] is T2, Cytochrome P450 11B1, mitochondrial (Homo sapiens, UniProt P15538).
T2 sequence (P15538 whole entry): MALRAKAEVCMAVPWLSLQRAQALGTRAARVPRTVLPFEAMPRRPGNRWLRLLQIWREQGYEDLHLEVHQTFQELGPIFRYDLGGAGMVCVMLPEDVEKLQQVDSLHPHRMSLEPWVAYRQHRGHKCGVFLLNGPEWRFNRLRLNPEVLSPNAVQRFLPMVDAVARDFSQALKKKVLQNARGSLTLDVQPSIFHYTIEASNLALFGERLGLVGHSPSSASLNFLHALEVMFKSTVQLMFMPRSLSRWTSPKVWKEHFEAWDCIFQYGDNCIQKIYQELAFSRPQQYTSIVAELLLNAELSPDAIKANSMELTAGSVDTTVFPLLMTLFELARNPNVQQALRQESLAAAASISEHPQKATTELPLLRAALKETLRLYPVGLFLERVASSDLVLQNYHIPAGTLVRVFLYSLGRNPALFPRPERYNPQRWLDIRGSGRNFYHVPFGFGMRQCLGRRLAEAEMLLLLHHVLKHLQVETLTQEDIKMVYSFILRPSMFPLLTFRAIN
The data set is described as follows: Inhibition of human CYP11B1-8C7 expressed in chinese hamster V79 cells using 11-deoxycortisol as substrate preincubated for 1 hr followed by substrate addition measured for 3 hrs by HTRF assay. The data set is classed as ADME, cell-based. On the technique in general: In TR-FRET formats the signal depends on donor and acceptor labels being close together.

The next data set deals with CYP11B1 / CYP11B2. The data set can be described thus: Selectivity ratio of IC50 for human CYP11B1-8C7 expressed in chinese hamster V79 cells to IC50 for human CYP11B2-CLE9 expressed in chinese hamster V79 cells. To be noted: read-out: Ratio IC50. The data set is classed as ADME, cell-based.
The nature of data set [4]: Solubility of the compound in PBS buffer at pH 2. The data set is classed as physicochemical.
Data set [5] in a line: Solubility of the compound in PBS buffer at pH 7. The data set is classed as physicochemical.
Data set [6] can be described thus: Intrinsic clearance in Sprague-Dawley rat liver microsomes at 0.3 mM preincubated for 10 mins followed by NADPH addition measured up to 45 mins by LC/MS analysis. To be noted: read-out: CLH. The data set is classed as ADME. For orientation: Microsomes from liver hold many membrane-bound enzymes, among them those of drug oxidation.
The nature of data set [7]: Ratio of IC50 for human CYP17 expressed in African green monkey COS7 cells to IC50 for human CYP11B2-CLE9 expressed in chinese hamster V79 cells. Also on record: species or system COS-7.
Data set [8] is described as follows: Ratio of IC50 for CYP19A1 (unknown origin) to IC50 for human CYP11B2-CLE9 expressed in chinese hamster V79 cells.
The nature of data set [9]: Ratio of IC50 for CYP21 (unknown origin) to IC50 for human CYP11B2-CLE9 expressed in chinese hamster V79 cells.
Data set [10] is described as follows: Oral bioavailability in Sprague-Dawley rat at 2 mg/kg administered via gavage by LC-MS/MS analysis. The data set is classed as ADME, organism-based. To be noted: in vivo.
A short description of data set [11]: Dose normalized AUC in Sprague-Dawley rat at 2 mg/kg administered via oral gavage by LC-MS/MS analysis. To be noted: in vivo. The data set is classed as ADME, organism-based.
A short description of data set [12]: Clearance in Sprague-Dawley rat plasma at 1 mg/kg, iv or 2 mg/kg administered via oral gavage by LC-MS/MS analysis. The data set is classed as ADME, organism-based.
Data set [13] is described as follows: Half life in Sprague-Dawley rat plasma at 1 mg/kg, iv or 2 mg/kg administered via oral gavage by LC-MS/MS analysis. The data set is classed as ADME, organism-based.
Data set [14] is described as follows: Oral bioavailability in Sprague-Dawley rat at 1 mg/kg administered via gavage by LC-MS/MS analysis. The data set is classed as ADME, organism-based. To be noted: in vivo.
Data set [15] can be described thus: Dose normalized AUC in Sprague-Dawley rat at 1 mg/kg administered via oral gavage by LC-MS/MS analysis. To be noted: in vivo. Type of data set: ADME, organism-based.
The nature of data set [16]: Clearance in Sprague-Dawley rat plasma at 0.5 mg/kg, iv or 1 mg/kg administered via oral gavage by LC-MS/MS analysis. Type of data set: ADME, organism-based.
A short description of data set [17]: Half life in Sprague-Dawley rat plasma at 0.5 mg/kg, iv or 1 mg/kg administered via oral gavage by LC-MS/MS analysis. Type of data set: ADME, organism-based.

The values below come from ChEMBL document CHEMBL3870364, “Discovery of Spirocyclic Aldosterone Synthase Inhibitors as Potential Treatments for Resistant Hypertension” (ACS Med Chem Lett, 2017).

Values after ≈ are worked out from the molar mass of the structure shown.

For `c1ccc2c(N3CCC4(CCOC4)CC3)cncc2c1`, the log distribution coefficient (logD) (in general, lipophilicity at a set pH, counting ionised and neutral species) in data set [1] was 2.6. The half-maximal inhibitory concentration (IC50) – broadly, the concentration needed to halve the response being measured – in data set [2] came out at 13 nM; in [3] it was 387 nM. The selectivity ratio in the data set with CYP11B1 / CYP11B2 turned out to be 24. Moreover, the solubility – broadly, how much of the substance goes into solution per volume – in [4] was determined as 196 µM (≈ 52.6 µg/mL); in data set [5], 165 µM (≈ 44.3 µg/mL). The CLint scaled at 300 µM in data set [6] is below 20 mL/min/kg.

In the case of `CC1(C)CN(c2cncc(N3CCC4(CCC(=O)N4)CC3)n2)C1`, the results for the IC50 in data set [2] and in data set [3] were 73 nM and 2190 nM, respectively. Also, the selectivity ratio with CYP11B1 / CYP11B2 was determined as 30.

For the compound `c1ccc2c(N3CCC4(CC3)COC4)cncc2c1`, the IC50 in data set [2] was 42 nM; in [3], 1590 nM. Besides, in the data set with CYP11B1 / CYP11B2, the selectivity ratio came out at 37.

With `c1ccc2c(N3CCC4(CCNC4)CC3)cncc2c1`, the results for the half-inhibitory concentration (IC50) in data set [2] and in data set [3] were above 10000 nM and 1310 nM, respectively. Besides, in the data set with CYP11B1 / CYP11B2, the selectivity ratio was below 1.

As for `CN1CC2(CCN(c3cncc([C@@](C)(O)C(F)(F)F)c3)CC2)CC1=O`, the figures for the IC50 in [2] and in data set [3] were 448 nM and 10000 nM, respectively. Also, the selectivity ratio in the data set on CYP11B1 / CYP11B2 was above 22.

In data set [1], `c1ccc2c(N3CCC4(CCCC4)CC3)cncc2c1` registered a logD of 5.6. In addition, the 50% inhibitory concentration (IC50) in data set [2] is 106 nM; in data set [3], 1670 nM. In addition, the selectivity ratio with CYP11B1 / CYP11B2 is 16. Moreover, the solubility in [4] is 176 µM (≈ 46.9 µg/mL); in data set [5], 3 µM (≈ 0.799 µg/mL). Moreover, the CLint scaled at 300 µM in data set [6] turned out to be 1290 mL/min/kg.

In the case of `c1ccc2c(N3CCC4(CCCO4)CC3)cncc2c1`, the half-inhibitory concentration (IC50) in data set [2] was determined as 704 nM; in data set [3], 787 nM. Further, in the data set on CYP11B1 / CYP11B2, the selectivity ratio came to 1.

`CN1CC2(CCN(c3cncc4ccccc34)CC2)CC1=O` yielded a pH-dependent lipophilicity (logD) in data set [1] of 1.6. Also, the IC50 in [2] stood at 228 nM; in data set [3], 2000 nM. In the data set on CYP11B1 / CYP11B2, the selectivity ratio was 9. Further, the solubility amounted to 149 µM (≈ 44 µg/mL) in data set [4] and 167 µM (≈ 49.3 µg/mL) in [5]. Moreover, the CLint scaled at 300 µM in data set [6] came to 76 mL/min/kg.

As for `c1ccc2c(N3CCC4(CCCCC4)CC3)cncc2c1`, the IC50 in [2] is 554 nM; in data set [3], 1570 nM. Further, the selectivity ratio in the data set on CYP11B1 / CYP11B2 amounted to 3.

For `CC(C)(C)OC(=O)N1CCC2(CCN(c3cncc4ccccc34)CC2)C1`, the IC50 was 1130 nM in [2] and above 8000 nM in [3]. Also, the selectivity ratio in the data set on CYP11B1 / CYP11B2 was above 7.

As to `CC1(C)CN(c2cncc(N3CCC4(CC3)CNC(=O)C4)n2)C1`, the values for the half-maximal inhibitory concentration (IC50) in data set [2] and in data set [3] were 34 nM and 1740 nM, respectively. The selectivity ratio in the data set on CYP11B1 / CYP11B2 is 51.

For the compound `CN1CC2(CCN(c3cncc([C@](C)(O)C(F)(F)F)c3)CC2)CC1=O`, the half-maximal inhibitory concentration (IC50) in data set [2] came out at 32 nM; in data set [3], 1540 nM. In the data set with CYP11B1 / CYP11B2, the selectivity ratio was found to be 49. The “Ratio IC50” value in [7], in data set [8] and in [9] was above 200 throughout. In addition, in data set [6], the CLint scaled at 300 µM was below 20 mL/min/kg. Also, in data set [10], the bioavailability – broadly, the share of a dose that reaches the circulation, judged against a reference dose that is usually intravenous – is 91%. Further, the AUC/dose in data set [11] was 2.15 µM·kg·h/mg. Also, in data set [12], the clearance stood at 24 mL/min/kg. Besides, in data set [13], the half-life (as a rule, the time needed for the level to fall by half in the phase considered) was 72 min.

With `CN1CCC2(CCN(c3cncc4ccccc34)CC2)C1=O`, the IC50 in data set [2] and in [3] was above 8000 nM throughout.

Consider `C[C@](O)(c1cncc(N2CCC3(CCOC3)CC2)c1)C(F)(F)F`, for which the concentration for half-maximal inhibition (IC50) is 13 nM in data set [2] and 355 nM in [3]. In the data set on CYP11B1 / CYP11B2, the selectivity ratio stood at 28. Also, the CLint scaled at 300 µM in data set [6] is below 20 mL/min/kg. In addition, the bioavailability in data set [14] was 100%. Besides, the AUC/dose in data set [15] amounted to 0.85 µM·kg·h/mg. The same compound displayed a clearance in data set [16] of 36 mL/min/kg. This compound also had a half-life in data set [17] of 30 min.

For the compound `CC(=O)N1CCC2(CCN(c3cncc4ccccc34)CC2)C1`, the values for the IC50 in [2] and in [3] were 1030 nM and 1000 nM, respectively. Besides, the selectivity ratio in the data set with CYP11B1 / CYP11B2 was found to be 1.

With `CN1CC2(CCN(c3cncc(N4CC(C)(C)C4)n3)CC2)CC1=O`, the values for the IC50 in data set [2] and in [3] were 94 nM and 4460 nM, respectively. Moreover, in the data set with CYP11B1 / CYP11B2, the selectivity ratio was 47.
